Measured values reported in ChEMBL document CHEMBL3232754, “Identification of novel bivalent mimetics of annonaceous acetogenins via a scaffold-hopping strategy” (Bioorg Med Chem Lett, 2014).

What was measured:
[1] = Growth inhibition of human SGC7901 cells after 72 hrs by MTT assay; type: functional; conditions: SGC-7901, 72 h
[2] = Growth inhibition of human 16HBE cells by MTT assay
[3] = tested on: HCT-116; assay: Growth inhibition of human HCT116 cells by MTT assay
[4] = tested on: HCT-116; assay: Growth inhibition of human HCT116 cells after 72 hrs by MTT assay; type: functional; conditions: HCT-116, 72 h
[5] = Growth inhibition of human HLF cells after 72 hrs by MTT assay; type: cell-based
[6] = Growth inhibition of human HLF cells by MTT assay
[7] = Growth inhibition of human 16HBE cells after 72 hrs by MTT assay; type: cell-based, 16HBE14o-
[8] = Growth inhibition of human SGC7901 cells by MTT assay; conditions: SGC-7901

SMILES	GI50 [1] [µM]	GI50 [2] [µM]	GI50 [3] [µM]	GI50 [4] [µM]	GI50 at 72 h [5] [µM]	GI50 [6] [µM]	GI50 at 72 h [7] [µM]	GI50 [8] [µM]
COC1=C(C)C(=O)C(CCCCCCCCCCN2CCN(C(=O)c3ccc(-c4ccccc4)cc3)CC2)=C(C)C1=O	5.27	> 20	20	2.29	> 20	> 20	3.19	> 20
COC1=C(OC)C(=O)C(CCCCCCCCCCN2CCN(CCCCCCCCCCC3=C(C)C(=O)C(OC)=C(OC)C3=O)CC2)=C(C)C1=O	9.77	> 20	11.7	1.95	> 20	> 20	2.63	
CC1=C(C)C(=O)C(CCCCCCCCCCN2CCCN(C(=O)c3ccc(-c4ccccc4)cc3)CC2)=C(C)C1=O	1.39	7.97	7.47	1.78	> 20	> 20	4	19.9
CC1=C(CCCCCCCCCCN2CCCN(C(=O)c3ccc(-c4ccccc4)cc3)CC2)C(=O)c2ccccc2C1=O	5.57	12.4	13.2	0.97	> 20	> 20	2.85	> 20
COC1=C(C)C(=O)C(CCCCCCCCCCN2CCN(CCCCCCCCCCC3=C(C)C(=O)C(OC)=C(C)C3=O)CC2)=C(C)C1=O	0.14	8.4	0.15	0.18	> 20	> 20	> 20	0.19
CC1=C(C)C(=O)C(CCCCCCCCCCN2CCCN(CCCCCCCCCCC3=C(C)C(=O)C(C)=C(C)C3=O)CC2)=C(C)C1=O	0.14	0.91	0.1	0.3	0.36	2.55	3.32	0.14
COC1=C(C)C(=O)C(CCCCCCCCCCN(C)CCN(C)CCCCCCCCCCC2=C(C)C(=O)C(OC)=C(C)C2=O)=C(C)C1=O	9.76	> 20	> 20	1.48	> 20	> 20	> 20	
COC1=C(C)C(=O)C(CCCCCCCCCCN2CCCN(CCCCCCCCCCC3=C(C)C(=O)C(OC)=C(C)C3=O)CC2)=C(C)C1=O	0.04	1.78	0.02	0.04	> 20	6.86	> 20	
COC1=C(OC)C(=O)C(CCCCCCCCCCN2CCCN(CCCCCCCCCCC3=C(C)C(=O)C(OC)=C(OC)C3=O)CC2)=C(C)C1=O	8.69	14	8.43	1.98	> 20	> 20	1.14	11.7
COc1cccc2c1C(=O)c1c(O)c3c(c(O)c1C2=O)C[C@@](O)(C(=O)CO)C[C@@H]3O[C@H]1C[C@H](N)[C@H](O)[C@H](C)O1 [DOXORUBICIN]		0.18	0.15			0.33		0.55
O=C1C=C(CCCCCCCCCCN2CCCN(C(=O)c3ccc(-c4ccccc4)cc3)CC2)C(=O)c2ccccc21	> 20	> 20	> 20	> 20	> 20	> 20	> 20	> 20
CCCCCCCCCC[C@H](O)COCCOC[C@@H](O)CCCCCCCCCCCCC1=C[C@H](C)OC1=O	0.16	4.8	0.09	0.03	9.71	2.62	3.34	0.25
CC1=C(C)C(=O)C(CCCCCCCCCCN2CCN(CCCCCCCCCCC3=C(C)C(=O)C(C)=C(C)C3=O)CC2)=C(C)C1=O	> 20	1.52	0.12	0.07	> 20	5.87	3.85	
CC1=C(CCCCCCCCCCN2CCN(CCCCCCCCCCC3=C(C)C(=O)c4ccccc4C3=O)CC2)C(=O)c2ccccc2C1=O	> 20	4.15	0.26	0.26	> 20	15.7	3.52	0.39
COC1=C(OC)C(=O)C(CCCCCCCCCCN2CCCN(C(=O)c3ccc(-c4ccccc4)cc3)CC2)=C(C)C1=O	5	8.01	9.73	1.36	> 20	> 20	10.3	> 20
COC1=C(C)C(=O)C(CCCCCCCCCCN2CCCN(C(=O)c3ccc(-c4ccccc4)cc3)CC2)=C(C)C1=O	1.56	9.76	9.68	0.89	> 20	> 20	3.15	19.4
CC1=C(CCCCCCCCCCN2CCCN(CCCCCCCCCCC3=C(C)C(=O)c4ccccc4C3=O)CC2)C(=O)c2ccccc2C1=O	0.12	1.14	0.13	0.09	4.95	2.68	2.7	0.15
